The assay addresses ALK tyrosine kinase receptor (Homo sapiens, UniProt Q9UM73). Briefly: In Vitro Kinase Activity Assay. The note with it: pH 7.5.

SMILES strings stand for the structures. pIC50: −log10 of the molar value.

Chain of ALK tyrosine kinase receptor (Q9UM73 whole entry): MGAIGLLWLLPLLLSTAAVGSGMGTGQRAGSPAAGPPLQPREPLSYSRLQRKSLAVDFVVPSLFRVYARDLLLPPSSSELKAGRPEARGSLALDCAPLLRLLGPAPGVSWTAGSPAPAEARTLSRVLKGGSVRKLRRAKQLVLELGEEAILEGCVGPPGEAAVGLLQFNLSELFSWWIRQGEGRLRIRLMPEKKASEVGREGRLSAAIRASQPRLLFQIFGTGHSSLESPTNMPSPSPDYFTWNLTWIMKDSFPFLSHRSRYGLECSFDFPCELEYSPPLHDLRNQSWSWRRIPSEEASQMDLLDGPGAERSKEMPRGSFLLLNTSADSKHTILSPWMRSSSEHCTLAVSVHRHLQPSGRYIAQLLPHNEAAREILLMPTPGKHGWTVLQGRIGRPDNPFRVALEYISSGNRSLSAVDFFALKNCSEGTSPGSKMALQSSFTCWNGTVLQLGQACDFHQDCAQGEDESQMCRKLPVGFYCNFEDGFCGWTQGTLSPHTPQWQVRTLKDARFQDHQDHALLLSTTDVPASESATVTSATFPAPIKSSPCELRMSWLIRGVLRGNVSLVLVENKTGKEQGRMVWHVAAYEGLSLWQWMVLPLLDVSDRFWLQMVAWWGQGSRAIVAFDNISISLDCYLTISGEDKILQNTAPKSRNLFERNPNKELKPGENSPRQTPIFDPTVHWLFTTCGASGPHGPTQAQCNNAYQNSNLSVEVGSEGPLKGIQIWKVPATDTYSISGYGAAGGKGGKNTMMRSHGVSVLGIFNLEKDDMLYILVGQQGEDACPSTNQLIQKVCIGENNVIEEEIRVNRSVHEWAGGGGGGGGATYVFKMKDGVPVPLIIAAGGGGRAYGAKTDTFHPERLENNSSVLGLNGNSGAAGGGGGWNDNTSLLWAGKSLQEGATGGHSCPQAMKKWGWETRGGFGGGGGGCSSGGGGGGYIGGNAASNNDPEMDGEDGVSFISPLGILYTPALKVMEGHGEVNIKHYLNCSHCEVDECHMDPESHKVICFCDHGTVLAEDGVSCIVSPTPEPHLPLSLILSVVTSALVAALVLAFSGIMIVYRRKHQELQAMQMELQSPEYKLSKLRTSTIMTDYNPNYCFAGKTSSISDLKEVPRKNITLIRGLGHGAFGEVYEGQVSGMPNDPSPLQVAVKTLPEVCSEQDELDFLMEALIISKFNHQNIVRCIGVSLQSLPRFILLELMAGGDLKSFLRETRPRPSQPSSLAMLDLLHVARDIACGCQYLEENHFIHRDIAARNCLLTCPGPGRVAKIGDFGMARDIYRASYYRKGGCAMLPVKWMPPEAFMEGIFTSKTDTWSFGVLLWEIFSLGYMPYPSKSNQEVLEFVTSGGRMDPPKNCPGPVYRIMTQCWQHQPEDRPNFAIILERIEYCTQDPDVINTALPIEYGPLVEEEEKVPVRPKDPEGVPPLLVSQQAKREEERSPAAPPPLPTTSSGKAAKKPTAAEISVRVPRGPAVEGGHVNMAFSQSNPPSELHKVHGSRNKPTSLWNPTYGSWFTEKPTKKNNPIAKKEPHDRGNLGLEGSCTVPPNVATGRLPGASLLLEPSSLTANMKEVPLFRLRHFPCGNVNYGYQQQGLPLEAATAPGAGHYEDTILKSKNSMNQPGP

For `CC(Cc1cc(F)ccc1F)Nc1cc[nH]c(=O)c1-c1nc2cc3c(cc2[nH]1)C(=O)N(C1CCN(C)CC1)C3=O` (stereo unspecified) [US8822500, [28]], the pIC50 was 7.82.

By pIC50 is commonly meant −log10 of the IC50, conventionally taken in molar units.

For the origin of these results see BindingDB's records for patent US8822500 (Chembridge, 2014).
